# Reference: article PMC7339578, “Multiple circulating alkaloids and saponins from intravenous Kang-Ai injection inhibit human cytochrome P450 and UDP-glucuronosyltransferase isozymes: potential drug–drug interactions” (Chinese Medicine, 2020)
# Read-outs that look alike come from different tables or passages of the source.
# Tests used:
# [1] = Protein binding assay (equilibrium dialysis); type: in vitro ADME, rat
# How it was run: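 Rat plasma binding was measured by equilibrium dialysis (12–14 kDa cutoff membrane), equilibrated 24 h at 37 °C and 55 rpm. Alkaloids were tested at 2 μmol/L and saponins at 4 μmol/L. Unbound fraction = dialysate concentration/post-dialysis plasma concentration × 100%.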
# CYP1A2 = target: T1, CYP1A2 (Homo sapiens, UniProt P05177); assay: Inhibition of recombinant CYP1A2 (probe phenacetin); type: in vitro ADME
# T1 construct: purchased Corning Biosciences 456203
# T1 sequence (P05177 1-516): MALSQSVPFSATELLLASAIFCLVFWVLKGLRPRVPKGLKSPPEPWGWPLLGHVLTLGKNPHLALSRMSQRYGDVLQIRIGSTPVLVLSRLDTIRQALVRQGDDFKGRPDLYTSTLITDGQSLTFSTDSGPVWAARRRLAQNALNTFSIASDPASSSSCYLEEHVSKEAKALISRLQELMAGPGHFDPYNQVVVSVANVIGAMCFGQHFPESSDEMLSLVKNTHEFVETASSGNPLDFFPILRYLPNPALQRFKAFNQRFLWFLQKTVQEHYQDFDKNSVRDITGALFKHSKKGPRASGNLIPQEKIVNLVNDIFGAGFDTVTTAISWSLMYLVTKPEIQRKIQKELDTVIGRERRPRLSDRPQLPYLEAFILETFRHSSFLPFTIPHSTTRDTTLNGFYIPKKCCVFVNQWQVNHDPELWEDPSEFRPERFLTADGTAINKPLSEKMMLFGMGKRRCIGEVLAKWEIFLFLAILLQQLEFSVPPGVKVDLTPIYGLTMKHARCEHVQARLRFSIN
# Protocol: (§1) In this study, phenacetin (100 μM), coumarin (100 μM), bupropion (100 μM), paclitaxel (60 μM), tolbutamide (200 μM), mephenytoin (100 μM), chlorzoxazone (200 μM) and nifedipine (40 μM) have been used as the probe substrates for CYP1A2, 2A6, 2B6, 2C8, 2C9, 2C19, 2E1 and 3A4, respectively.
# CYP2B6 = target: T2, CYP2B6 (Homo sapiens, UniProt P20813); assay: Inhibition of recombinant CYP2B6 (probe bupropion); type: in vitro ADME
# T2 sequence (P20813 1-491): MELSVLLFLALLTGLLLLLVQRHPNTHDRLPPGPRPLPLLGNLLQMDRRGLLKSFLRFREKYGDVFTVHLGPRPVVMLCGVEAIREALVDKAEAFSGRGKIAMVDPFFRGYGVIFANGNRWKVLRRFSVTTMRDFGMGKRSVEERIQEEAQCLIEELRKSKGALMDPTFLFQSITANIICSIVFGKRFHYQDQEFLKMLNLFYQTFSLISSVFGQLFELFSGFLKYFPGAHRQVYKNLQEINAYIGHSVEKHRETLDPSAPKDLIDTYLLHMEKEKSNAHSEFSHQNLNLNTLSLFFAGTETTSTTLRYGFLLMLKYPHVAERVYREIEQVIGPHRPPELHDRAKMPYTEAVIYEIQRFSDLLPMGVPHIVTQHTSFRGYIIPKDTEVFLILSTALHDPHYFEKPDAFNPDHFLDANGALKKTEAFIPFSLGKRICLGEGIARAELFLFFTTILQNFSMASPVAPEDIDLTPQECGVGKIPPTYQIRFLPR
# Protocol: as §1
# CYP2C9 = CYP2C9 (Homo sapiens, UniProt P11712); assay: Inhibition of recombinant CYP2C9 (probe tolbutamide); type: in vitro ADME; conditions: for inhibition type (smallest AIC and SC) / Ki / α / Cmax/Ki ([I]/Ki): CYP2C9; for Cmax/Ki ([I]/Ki): selected model, rat plasma Cmax
# Sequence of CYP2C9 (P11712 whole entry): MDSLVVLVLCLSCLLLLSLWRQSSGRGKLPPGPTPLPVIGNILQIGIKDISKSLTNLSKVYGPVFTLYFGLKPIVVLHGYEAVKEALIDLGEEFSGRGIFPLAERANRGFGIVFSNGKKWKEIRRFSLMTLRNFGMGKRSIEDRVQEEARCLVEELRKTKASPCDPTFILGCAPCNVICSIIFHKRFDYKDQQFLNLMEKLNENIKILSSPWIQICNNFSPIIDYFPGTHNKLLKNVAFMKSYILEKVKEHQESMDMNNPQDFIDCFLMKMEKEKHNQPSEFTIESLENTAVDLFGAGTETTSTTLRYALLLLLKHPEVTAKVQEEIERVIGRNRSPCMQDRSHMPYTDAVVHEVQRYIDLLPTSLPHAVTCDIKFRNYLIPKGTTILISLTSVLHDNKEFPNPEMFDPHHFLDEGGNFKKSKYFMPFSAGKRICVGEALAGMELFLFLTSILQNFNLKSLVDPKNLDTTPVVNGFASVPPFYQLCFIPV
# Protocol: as §1
# CYP2C19 = CYP2C19 (Homo sapiens, UniProt P33261); assay: Inhibition of recombinant CYP2C19 (probe mephenytoin); type: in vitro ADME
# Sequence of CYP2C19 (P33261 whole entry): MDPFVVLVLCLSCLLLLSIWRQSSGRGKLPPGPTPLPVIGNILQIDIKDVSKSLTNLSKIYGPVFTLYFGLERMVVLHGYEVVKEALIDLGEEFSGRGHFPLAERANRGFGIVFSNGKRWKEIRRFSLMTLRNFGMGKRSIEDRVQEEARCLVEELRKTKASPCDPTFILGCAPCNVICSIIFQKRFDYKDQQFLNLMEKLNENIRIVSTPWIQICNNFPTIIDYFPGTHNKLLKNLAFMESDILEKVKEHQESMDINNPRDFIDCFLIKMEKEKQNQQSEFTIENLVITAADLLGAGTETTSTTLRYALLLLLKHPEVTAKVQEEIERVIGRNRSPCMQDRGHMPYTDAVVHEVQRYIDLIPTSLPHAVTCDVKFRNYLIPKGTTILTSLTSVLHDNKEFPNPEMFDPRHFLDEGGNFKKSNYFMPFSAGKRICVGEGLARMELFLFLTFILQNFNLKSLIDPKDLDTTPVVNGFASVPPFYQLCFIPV
# Protocol: as §1
# UGT2B7 = target: T3, UGT2B7 (Homo sapiens, UniProt P16662); assay: Inhibition of expressed UGT2B7 (probe 4-MU); type: in vitro ADME
# T3 sequence (P16662 24-529): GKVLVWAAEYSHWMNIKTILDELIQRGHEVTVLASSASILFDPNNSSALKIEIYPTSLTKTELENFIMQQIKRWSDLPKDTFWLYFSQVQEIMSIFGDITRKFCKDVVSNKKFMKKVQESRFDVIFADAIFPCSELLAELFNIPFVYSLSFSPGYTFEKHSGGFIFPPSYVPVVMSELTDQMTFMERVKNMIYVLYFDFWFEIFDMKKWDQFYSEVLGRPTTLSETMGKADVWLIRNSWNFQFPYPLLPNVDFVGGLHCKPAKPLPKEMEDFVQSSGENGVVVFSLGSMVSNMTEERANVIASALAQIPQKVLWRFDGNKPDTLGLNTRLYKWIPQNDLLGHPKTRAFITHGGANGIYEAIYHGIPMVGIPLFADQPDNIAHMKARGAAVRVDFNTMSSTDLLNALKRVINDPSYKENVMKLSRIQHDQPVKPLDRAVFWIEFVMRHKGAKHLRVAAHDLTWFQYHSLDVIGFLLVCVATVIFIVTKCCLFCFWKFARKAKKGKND
# Protocol: After centrifugation (13,800g, 10 min), the supernatant (8 μL) was obtained for determination by UHPLC system.
# Similarly, β-estradiol (60 μM), propofol (40 μM) and 4-MU (350 μM) were typically used as the substrates for UGT1A1, 1A9 and 2B7, respectively. After optimization of incubation conditions (Additional file 1: Fig. S2), the protein concentrations for UGT1A1, 1A9, and 2B7 were 0.125, 0.05, and 0.05 mg/mL, respectively.
# [2] = rat plasma, equilibrium dialysis 24 h, 37 °C, 2 μmol/L alkaloids, 4 μmol/L saponins, read-out: fu-plasma (unbound fraction)
# [3] = recombinant isozyme, mean ± SD of triplicate, unit not given (IC50 classes in μM), read-out: IC50 towards CYP1A2
# [4] = recombinant isozyme, mean ± SD of triplicate, unit not given (IC50 classes in μM), read-out: IC50 towards CYP2B6
# [5] = tolbutamide 200 μM, read-out: IC50 towards CYP2C9
# [6] = recombinant isozyme, mean ± SD of triplicate, unit not given (IC50 classes in μM), read-out: IC50 towards CYP2C19
# [7] = recombinant isozyme, mean ± SD of triplicate, unit not given (IC50 classes in μM), read-out: IC50 towards UGT2B7
# [8] = recombinant isozyme, mean ± SD of triplicate, unit not given (IC50 classes in μM), read-out: IC50 towards CYP2C9
IC50 (CYP2C9; [8]),SMILES,"fraction unbound at 24 h [1, 2]",IC50 (CYP1A2; [3]),IC50 (CYP2B6; [4]),IC50 (CYP2C19; [6]),IC50 (UGT2B7; [7]),further results
,"O=C1CCC[C@@H]2[C@H]3CCCN4CCC[C@@H](CN12)[C@@H]34 [Compound A1, Matrine]",0.927 ± 0.0681,,,,,IC50 (CYP1A2): > 100 µM; IC50 (CYP2B6): > 100 µM; IC50 (CYP2C9): > 100 µM; IC50 (CYP2C19): > 100 µM; IC50 (UGT2B7): > 100 µM
,"O=C1CCC[C@@H]2[C@H]3CCC[N+]4([O-])CCC[C@@H](CN12)[C@@H]34 (stereo partly drawn) [Compound A3, Oxymatrine]",,,,,,"fraction unbound at 24 h ([1]; rat, plasma): 0.932 ± 0.0652; IC50 (CYP1A2): > 100 µM; IC50 (CYP2B6; IC50 towards CYP2B6, recombinant isozyme, mean ± SD of triplicate, unit not given (IC50 classes in μM)): > 100 µM; IC50 (CYP2C9; IC50 towards CYP2C9, recombinant isozyme, mean ± SD of triplicate, unit not given (IC50 classes in μM)): > 100 µM; IC50 (CYP2C19): > 100 µM; IC50 (UGT2B7): > 100 µM"
,"CC(C)(O)[C@@H]1CC[C@](C)([C@H]2[C@@H](O)C[C@@]3(C)[C@@H]4C[C@H](O[C@@H]5O[C@H](CO)[C@@H](O)[C@H](O)[C@H]5O)[C@H]5C(C)(C)[C@@H](O[C@@H]6OC[C@@H](O)[C@H](O)[C@H]6O)CC[C@@]56C[C@@]46CC[C@]23C)O1 [Compound B2, Astragaloside IV]",,> 100 µM,> 100 µM,> 100 µM,> 100 µM,"bound in rat plasma ([1]; rat plasma, equilibrium dialysis): ~90%; fu-plasma (unbound fraction) ([1]; rat plasma, equilibrium dialysis 24 h, 37 °C, 2 μmol/L alkaloids, 4 μmol/L saponins): 12.35 ± 1.02%; inhibition type (smallest AIC and SC) (CYP2C9): Noncompetitive inhibition; Ki (CYP2C9; competitive model): 17.4 ± 3.7 µM; Ki (CYP2C9; mixed-type model): 45 ± 16.6 µM; α (CYP2C9; mixed-type model): 1.5 ± 1.0; Ki (CYP2C9; noncompetitive model): 55.8 ± 5.3 µM; Cmax/Ki ([I]/Ki) (CYP2C9): 0.04; IC50 (CYP2C9; [5]): 65 µM"
> 100 µM,"CC(C)=CCC[C@](C)(O[C@@H]1O[C@H](CO)[C@@H](O)[C@H](O)[C@H]1O)[C@H]1CC[C@]2(C)[C@@H]1[C@H](O)C[C@@H]1[C@@]3(C)CC[C@H](O)C(C)(C)[C@@H]3[C@@H](O[C@@H]3O[C@H](CO)[C@@H](O)[C@H](O)[C@H]3O[C@@H]3O[C@@H](C)[C@H](O)[C@@H](O)[C@H]3O)C[C@]12C [Compound C9, Ginsenoside Re]",0.874 ± 0.0659,> 100 µM,> 100 µM,> 100 µM,> 100 µM,
> 100 µM,"CC(C)=CCC[C@](C)(O[C@@H]1O[C@H](CO)[C@@H](O)[C@H](O)[C@H]1O)[C@H]1CC[C@]2(C)[C@@H]1[C@H](O)C[C@@H]1[C@@]3(C)CC[C@H](O[C@@H]4O[C@H](CO)[C@@H](O)[C@H](O)[C@H]4O[C@@H]4O[C@H](CO)[C@@H](O)[C@H](O)[C@H]4O)C(C)(C)[C@@H]3CC[C@]12C [Compound D2, Ginsenoside Rd]",0.0075 ± 0.0008,> 100 µM,20.2 ± 12.4 µM,> 100 µM,> 100 µM,"inhibition type (smallest AIC and SC) (CYP2B6; CYP2B6): Noncompetitive inhibition; Ki (CYP2B6; CYP2B6, competitive model): 10.2 ± 2.1 µM; Ki (CYP2B6; CYP2B6, mixed-type model): 36.3 ± 10.2 µM; α (CYP2B6; CYP2B6, mixed-type model): 1.0 ± 0.4; Ki (CYP2B6; CYP2B6, noncompetitive model): 37.2 ± 2.3 µM; Cmax/Ki ([I]/Ki) (CYP2B6; CYP2B6, selected model, rat plasma Cmax): 0.02; IC50 (CYP2B6; bupropion 100 μM, read-out: IC50 against CYP2B6): 20.2 µM"
,"CC(C)=CCC[C@](C)(O[C@@H]1O[C@H](CO[C@@H]2O[C@@H](CO)[C@H](O)[C@H]2O)[C@@H](O)[C@H](O)[C@H]1O)[C@H]1CC[C@]2(C)[C@@H]1[C@H](O)C[C@@H]1[C@@]3(C)CC[C@H](O[C@@H]4O[C@H](CO)[C@@H](O)[C@H](O)[C@H]4O[C@@H]4O[C@H](CO)[C@@H](O)[C@H](O)[C@H]4O)C(C)(C)[C@@H]3CC[C@]12C [Compound D3, Ginsenoside Rc]",0.0112 ± 0.0012,> 100 µM,> 100 µM,> 100 µM,> 100 µM,"IC50 towards CYP2C9 (CYP2C9; recombinant isozyme, mean ± SD of triplicate, unit not given (IC50 classes in μM)): Activation"
8.8 ± 3.2 µM,"CC(C)=CCC[C@](C)(O[C@@H]1O[C@H](CO[C@@H]2O[C@H](CO)[C@@H](O)[C@H](O)[C@H]2O)[C@@H](O)[C@H](O)[C@H]1O)[C@H]1CC[C@]2(C)[C@@H]1[C@H](O)C[C@@H]1[C@@]3(C)CC[C@H](O[C@@H]4O[C@H](CO)[C@@H](O)[C@H](O)[C@H]4O[C@@H]4O[C@H](CO)[C@@H](O)[C@H](O)[C@H]4O)C(C)(C)[C@@H]3CC[C@]12C [Compound D5, Ginsenoside Rb1]",0.0096 ± 0.0009,> 100 µM,> 100 µM,> 100 µM,> 100 µM,inhibition type (smallest AIC and SC) (CYP2C9): Noncompetitive inhibition; Ki (CYP2C9; competitive model): 8.2 ± 1 µM; Ki (CYP2C9; mixed-type model): 18.8 ± 4.3 µM; α (CYP2C9; mixed-type model): 0.7 ± 0.3; Ki (CYP2C9; noncompetitive model): 16.1 ± 0.9 µM; Cmax/Ki ([I]/Ki) (CYP2C9): 0.03; IC50 (CYP2C9; [5]): 8.81 µM

SMILES,IC50 (CYP2C9; [8]),"fraction unbound at 24 h [1, 2]",IC50 (CYP1A2; [3]),IC50 (CYP2B6; [4]),IC50 (CYP2C19; [6]),IC50 (UGT2B7; [7]),further results
"CC(C)=CCC[C@](C)(O[C@@H]1O[C@H](CO)[C@@H](O)[C@H](O)[C@H]1O)[C@H]1CC[C@]2(C)[C@@H]1[C@H](O)C[C@@H]1[C@@]3(C)CC[C@H](O)C(C)(C)[C@@H]3[C@@H](O[C@@H]3O[C@H](CO)[C@@H](O)[C@H](O)[C@H]3O)C[C@]12C [Compound C6, Ginsenoside Rg1]",> 100 µM,0.863 ± 0.0732,> 100 µM,> 100 µM,> 100 µM,> 100 µM,
"CC(C)=CCC[C@](C)(O)[C@H]1CC[C@]2(C)[C@@H]1[C@H](O)C[C@@H]1[C@@]3(C)CC[C@H](O)C(C)(C)[C@@H]3[C@@H](O[C@@H]3O[C@H](CO)[C@@H](O)[C@H](O)[C@H]3O[C@@H]3O[C@H](CO)[C@@H](O)[C@H](O)[C@H]3O)C[C@]12C [Compound C7, Ginsenoside Rf]",> 100 µM,,> 100 µM,> 100 µM,> 100 µM,> 100 µM,"fraction unbound at 24 h ([1]; rat, plasma): 0.602 ± 0.0701"
